In patent US9497966B2, “Pesticidal compositions and related methods” (DOW AGROSCIENCES LLC, priority 2013, dated 2016):

Columns and labels:
[1] = system: Green Peach Aphid (Myzus persicae) (GPA) (MYZUPE); test: Bioassay for Green Peach Aphid, foliar spray on infested cabbage seedlings; format: in vivo; conditions: 72 h, 200 ppm foliar spray on cabbage, graded after three days, Abbott-corrected % control, read-out: % Control (or Mortality) rating, GPA
Procedure: Example A: Bioassays for Green Peach Aphid (Myzus persicae) (GPA) (MYZUPE)
Cabbage seedlings grown in 3-inch pots, with 2-3 small (3-5 cm) true leaves, were used as test substrate. The seedlings were infested with 20-50 GPA (wingless adult and nymph stages) one day prior to chemical application. Four pots with individual seedlings were used for each treatment. Test compounds (2 mg) were dissolved in 2 mL of acetonemethanol (1:1) solvent, forming stock solutions of 1000 ppm test compound. The stock solutions were diluted 5× with 0.025% Tween 20 in H2O to obtain the solution at 200 ppm test compound. A hand-held aspirator-type sprayer was used for spraying a solution to both sides of […] leaves until runoff. Reference plants (solvent check) were sprayed with the diluent only containing 20% by volume of acetonemethanol (1:1) solvent. Treated plants were held in a holding room for three days at approximately 25° C. and ambient relative humidity (RH) prior to grading. Evaluation was conducted by counting the number of live aphids per plant under a microscope. Percent control was measured by using Abbott's correction formula (W. S. Abbott, “A Method of Computing the Effectiveness of an Insecticide,” J. Econ. Entomol. 18 (1925), pp. 265-267) as follows. Corrected % Control=100*(X−Y)/X • where • X=No. of live aphids on solvent check plants and • Y=No. of live aphids on treated plants The results are indicated in the table entitled “TABLE 2. Biological Data for Green Peach Aphid (MYZUPE) and Sweetpotato Whitefly-crawler (WF) (BEMITA)” (See Table Section).

[2] = system: Sweetpotato Whitefly-Crawler (Bemisia tabaci) (WF) (BEMITA); test: Insecticidal test for Sweetpotato Whitefly-Crawler in foliar spray assay on cotton plants; format: in vivo; conditions: 216 h, 200 ppm foliar spray on cotton, graded after 9 days, Abbott-corrected % control, read-out: % Control (or Mortality) rating, WF
Procedure: Example B: Insecticidal Test for Sweetpotato Whitefly-Crawler (Bemisia tabaci) (WF) (BEMITA) in Foliar Spray Assay
Cotton plants (Gossypium hirsutum) grown in 3-inch pots, with 1 small (4-5 cm) true leaves, were used as test substrate. The plants were infested with 200-400 whitefly eggs 4-5 days prior to chemical application. Four pots with individual plants were used for each treatment. Test compounds (2 mg) were dissolved in 1 mL of acetone solvent, forming stock solutions of 2000 ppm test compound. The stock solutions were diluted 10× with 0.025% Tween 20 in H2O (diluents) to obtain the solution at 200 ppm test compound. A hand-held aspirator-type sprayer was used for spraying a solution to both sides of cotton leaves until runoff. Reference plants (solvent check) were sprayed with the diluent only containing 10% by volume of acetone solvent. Treated plants were held in a holding room for 9 days at approximately 25° C. and ambient relative humidity (RH) prior to grading. Evaluation was conducted by counting the number of live 3-4 nymph stage per plant under a microscope. Percent control was measured by using Abbott's correction formula (W. S. Abbott, “A Method of Computing the Effectiveness of an Insecticide,” J. Econ. Entomol. 18 (1925), pp. 265-267) as follows. Corrected % Control=100*(X−Y)/X • where • X=No. of live nymphs on solvent check plants and • Y=No. of live nymphs on treated plants.
Biological Data for Green Peach Aphid (MYZUPE) and Sweetpotato Whitefly-crawler (WF) (BEMITA)” (See Table Section).

| Structure (SMILES) | mortality at 200 ppm [1] | mortality at 200 ppm [2] |
| --- | --- | --- |
| C#CCN(C(=O)C(CSC(c1ccccc1)(c1ccccc1)c1ccccc1)=NOCC)c1cn(-c2cccnc2)nc1Cl [Compound F1, N-(3-chloro-1-(pyridin-3-yl)-1H-pyrazol-4-yl)-2-(ethoxyimino)-N-(prop-2-yn-1-yl)-3-(tritylthio)propanamide] | < 0% | 0 to 80% |
| C#CCN(C(=O)C(CSCC1CC1(F)F)=NOC)c1cn(-c2cccnc2)nc1Cl (stereo not shown) [Compound F2, N-(3-Chloro-1-(pyridin-3-yl)-1H-pyrazol-4-yl)-3-(((2,2-difluorocyclopropyl)methyl)thio)-2-(methoxyimino)-N-(prop-2-yn-1-yl)propanamide] | 80 to 100% | 80 to 100% |
| CCN(C(=O)C(CS(=O)(=O)CC1CC1(F)F)=NOC)c1cn(-c2cccnc2)nc1Cl (stereo not shown) [Compound F3] | 80 to 100% | 80 to 100% |
| C#CCN(C(=O)C(CSC(c1ccccc1)(c1ccccc1)c1ccccc1)=NOC)c1cn(-c2cccnc2)nc1Cl [Compound F4, N-(3-chloro-1-(pyridin-3-yl)-1H-pyrazol-4-yl)-2-(methoxyimino)-N-(prop-2-yn-1-yl)-3-(tritylthio)propanamide] | < 0% | 0 to 80% |
| CCN(C(=O)C(CSCC1CC1(F)F)=NOC)c1cn(-c2cccnc2)nc1Cl (stereo not shown) [Compound F5] | 80 to 100% | 80 to 100% |
| C#CCN(C(=O)C(CSCC(F)(F)F)=NOC)c1cn(-c2cccnc2)nc1Cl [Compound F6, N-(3-Chloro-1-(pyridin-3-yl)-1H-pyrazol-4-yl)-2-(methoxyimino)-N-(prop-2-yn-1-yl)-3-((2,2,2-trifluoroethyl)thio)propanamide] | 80 to 100% | 80 to 100% |
| C#CCN(C(=O)C(CS)=NOCC)c1cn(-c2cccnc2)nc1Cl [Compound F7, N-(3-Chloro-1-(pyridin-3-yl)-1H-pyrazol-4-yl)-2-(ethoxyimino)-3-mercapto-N-(prop-2-yn-1-yl)propanamide] | 80 to 100% | < 0% |
| CCN(C(=O)C(CS(=O)(=O)CCC(F)(F)F)=NOC)c1cn(-c2cccnc2)nc1Cl [Compound F8, N-(3-Chloro-1-(pyridin-3-yl)-1H-pyrazol-4-yl)-N-ethyl-2-(methoxyimino)-3-((3,3,3-trifluoropropyl)sulfonyl)propanamide] | 80 to 100% | 80 to 100% |
| CCN(C(=O)C(CS)=NOC)c1cn(-c2cccnc2)nc1Cl [Compound F9, N-(3-Chloro-1-(pyridin-3-yl)-1H-pyrazol-4-yl)-N-ethyl-3-mercapto-2-(methoxyimino)propanamide] | 80 to 100% | 0 to 80% |
| CCON=C(CSCC1CC1(F)F)C(=O)N(CC)c1cn(-c2cccnc2)nc1Cl (stereo not shown) [Compound F11, N-(3-Chloro-1-(pyridin-3-yl)-1H-pyrazol-4-yl)-3-(((2,2-difluorocyclopropyl)methyl)thio)-2-(ethoxyimino)-N-ethylpropanamide] | 80 to 100% | 80 to 100% |
| CCON=C(CSC(c1ccccc1)(c1ccccc1)c1ccccc1)C(=O)N(CC)c1cn(-c2cccnc2)nc1Cl [Compound F12, N-(3-chloro-1-(pyridin-3-yl)-1H-pyrazol-4-yl)-2-(ethoxyimino)-N-ethyl-3-(tritylthio)propanamide] | 0 to 80% | 80 to 100% |
| C=CCON=C(CSC(c1ccccc1)(c1ccccc1)c1ccccc1)C(=O)N(CC)c1cn(-c2cccnc2)nc1Cl [Compound F13, 2-((Allyloxy)imino)-N-(3-chloro-1-(pyridin-3-yl)-1H-pyrazol-4-yl)-N-ethyl-3-(tritylthio)propanamide] | 0 to 80% | 0 to 80% |
| CCN(C(=O)C(CSCCC(F)(F)F)=NOC)c1cn(-c2cccnc2)nc1Cl [Compound F14, N-(3-chloro-1-(pyridin-3-yl)-1H-pyrazol-4-yl)-N-ethyl-2-(methoxyimino)-3-((3,3,3-trifluoropropyl)thio)propanamide] | 80 to 100% | 80 to 100% |
| CCON=C(CSCCCC(F)(F)F)C(=O)N(CC)c1cn(-c2cccnc2)nc1Cl [Compound F15, N-(3-Chloro-1-(pyridin-3-yl)-1H-pyrazol-4-yl)-2-(ethoxyimino)-N-ethyl-3-((4,4,4-trifluorobutyl)thio)propanamide] | 80 to 100% | 80 to 100% |
| C#CCN(C(=O)C(CSCCC(F)(F)F)=NOCC)c1cn(-c2cccnc2)nc1Cl [Compound F16, N-(3-Chloro-1-(pyridin-3-yl)-1H-pyrazol-4-yl)-2-(ethoxyimino)-N-(prop-2-yn-1-yl)-3-((3,3,3-trifluoropropyl)thio)propanamide] | 80 to 100% | 80 to 100% |
| CCON=C(CSCC(F)(F)F)C(=O)N(CC)c1cn(-c2cccnc2)nc1Cl [Compound F17, N-(3-Chloro-1-(pyridin-3-yl)-1H-pyrazol-4-yl)-2-(ethoxyimino)-N-ethyl-3-((2,2,2-trifluoroethyl)thio)propanamide] | 80 to 100% | 80 to 100% |
| CCN(C(=O)C(C[S+]([O-])CCC(F)(F)F)=NOC)c1cn(-c2cccnc2)nc1Cl (stereo not shown) [Compound F18, N-(3-Chloro-1-(pyridin-3-yl)-1H-pyrazol-4-yl)-N-ethyl-2-(methoxyimino)-3-((3,3,3-trifluoropropyl)sulfinyl)propanamide] | 80 to 100% | 80 to 100% |
| C#CCN(C(=O)C(CSCCCC(F)(F)F)=NOC)c1cn(-c2cccnc2)nc1Cl [Compound F19, N-(3-Chloro-1-(pyridin-3-yl)-1H-pyrazol-4-yl)-2-(methoxyimino)-N-(prop-2-yn-1-yl)-3-((4,4,4-trifluorobutyl)thio)propanamide] | 80 to 100% | 80 to 100% |
| CCON=C(CS)C(=O)N(CC)c1cn(-c2cccnc2)nc1Cl [Compound F20, N-(3-chloro-1-(pyridin-3-yl)-1H-pyrazol-4-yl)-2-(ethoxyimino)-N-ethyl-3-mercaptopropanamide] | 80 to 100% | 0 to 80% |
| C#CCN(C(=O)C(CSCCC(F)(F)F)=NOC)c1cn(-c2cccnc2)nc1Cl [Compound F21, N-(3-Chloro-1-(pyridin-3-yl)-1H-pyrazol-4-yl)-2-(methoxyimino)-N-(prop-2-yn-1-yl)-3-((3,3,3-trifluoropropyl)thio)propanamide] | 80 to 100% | 80 to 100% |
| CCN(C(=O)C(C[S+]([O-])CC1CC1(F)F)=NOC)c1cn(-c2cccnc2)nc1Cl (stereo not shown) [Compound F22] | 80 to 100% | 80 to 100% |
| C#CCN(C(=O)C(CS)=NOC)c1cn(-c2cccnc2)nc1Cl [Compound F23, N-(3-Chloro-1-(pyridin-3-yl)-1H-pyrazol-4-yl)-3-mercapto-2-(methoxyimino)-N-(prop-2-yn-1-yl)propanamide] | 0 to 80% | 0 to 80% |
| CCON=C(CSCCC(F)(F)F)C(=O)N(CC)c1cn(-c2cccnc2)nc1Cl [Compound F24, N-(3-chloro-1-(pyridin-3-yl)-1H-pyrazol-4-yl)-2-(ethoxyimino)-N-ethyl-3-((3,3,3-trifluoropropyl)thio)propanamide] | 80 to 100% | 80 to 100% |
